Converted amounts (≈) assume the structure as drawn.
Key:
[1] = test system: S. aureus ATCC25923; test: MIC determination by microplate dilution, S. aureus human strain; type: cell-based, Staphylococcus aureus; conditions: Staphylococcus aureus, ATCC25923, Gram-positive, Mueller-Hinton medium, 24 h, 37° C.
Experimental: (§1) 1) Preparation of the Preculture
(§2) A negative control (2 mL of sterile culture medium)
(§3) A positive control (1940 μL of culture medium+40 μL of DMSO+20 μL of bacterial suspension) from a thawed biological strain (the biological strains are stored at −80° C. in glycerol).
(§4) The tubes were incubated at 37° C. for 24 hours at 100 rpm.
(§5) The microorganisms were handled under a type L2 laboratory fume cupboard and, before any handling, a UV cycle was programmed and only sterile material was used. […] The chemical compounds to be tested were prepared in a DMSO/methanol mixture (50/50) at a concentration of 5 mg/mL.
(§6) 2) Preparation of the Microplate for the Determination of the Minimum Inhibitory Concentration (MIC)
(§7) After 24 hours of incubation, a measurement of the optical density was taken using a spectrophotometer at 600 nm, collecting 100 μL of the bacterial suspension diluted in 900 μL of the sterile culture medium. This test required the use of a 96-well plate and the required volume of the microbial suspension to be seeded was calculated for an OD corresponding to a value equal to 0.01 in each well. In this plate, the first line corresponded to the negative control (195 μL of sterile culture medium in each well), the second line to the positive control (seeded culture medium supplemented with 2% of DMSO), the third line was loaded twice with bacterial suspension, 8 μL of test product were placed in each well. Thereafter, a 0.5 cascade dilution was performed from this line.
(§8) The first column served as inhibition control. A sterile filter was then placed on the microplate, allowing the passage of gases but not of contaminants. The microplate was incubated at 37° C. under a humid atmosphere for 24 hours.
(§9) NB: The medium used is Mueller-Hinton (MH) medium for bacteria. All the tests were performed in duplicate.
(§10) 4) Reading of the Results
(§11) After incubation, the filter was replaced with a transparent film, and an OD reading was then taken in an iEMS plate spectrophotometer at 620 nm. Calculation of the minimum inhibitory concentration (MIC) was performed.

[2] = test system: CHO-K1 cells; test: WST1 cytotoxicity test on CHO-K1 cells; type: cell-based, Chinese hamster; conditions: Cricetulus griseus, CHO-K1, 24 h, read-out: IC50 (μg/mL) CHO
Experimental: Test WST1 was used to measure the cytotoxic activity of the products. This is a colorimetric test which makes it possible to measure the viability and the degree of cell proliferation. It is based on cleavage of the colorless tetrazolium salts WST-1 (4-[3-(4-iodophenyl)-2-(4-nitrophenyl)-2H-5-tetrazolio]-1,3-benzene disulfonate) with mitochondrial dehydrogenases to the yellow-colored formazan derivative, which may be quantified by spectrophotometry at 420-480 nm.
The WST1 test was performed on Chinese hamster ovary cells. The CHO-K1 cells (ATCC, USA) are kept in culture on McCoy's 5A medium supplemented with 10% fetal calf serum, 2 mM of L-glutamine and a mixture of penicillin-streptomycin (100 U/ml: 10 μg/mL). The culture is incubated at 37° C. under an atmosphere enriched in CO2 (5%), and subcultured every two days.
The cells are transferred into 96-well plates (25 000 cells/mL) in whole McCoy's 5A medium, and maintained for 24 hours at 37° C. under a humid atmosphere enriched in CO2 (5%). Increasing concentrations of test products are added to the wells in double tests and 8 growth controls containing the cells in the medium alone are included in each series of tests. After 24 hours at 37° C. (5% CO2), the culture medium is removed, the cells are rinsed in phosphate buffer (PBS) and 50 μL of PBS containing 10% of reagent WST1 are added to each well. After 20 minutes of incubation at 37° C., the results are read by spectrophotometry at 450 nm.
The results are expressed in dose-response relationships, modeled by nonlinear regression analysis using the TableCurve software. The 50% inhibitory concentration (IC50) represents the concentration of product that is capable of reducing the cell viability by 50%.

[3] = test system: P. aeruginosa (1051575); test: MIC determination by microplate dilution, P. aeruginosa animal strain; type: cell-based, Pseudomonas aeruginosa; conditions: Pseudomonas aeruginosa, Gram-negative, Mueller-Hinton medium, 24 h, 37° C.
Experimental: as §1, §2, §3, §4, §5, §6, §7, §8, §9, §10, §11

[4] = test system: S. aureus (340); test: MIC determination by microplate dilution, S. aureus animal strain; type: cell-based, Staphylococcus aureus; conditions: Staphylococcus aureus, Gram-positive, Mueller-Hinton medium, 24 h, 37° C.
Experimental: as §1, §2, §3, §4, §5, §6, §7, §8, §9, §10, §11

[5] = test system: E. coli ATCC28922; test: MIC determination by microplate dilution, E. coli human strain; type: cell-based, Escherichia coli; conditions: Escherichia coli, ATCC28922, Gram-negative, Mueller-Hinton medium, 24 h, 37° C.
Experimental: as §1, §2, §3, §4, §5, §6, §7, §8, §9, §10, §11

[6] = test system: S. intermedius (1051997); test: MIC determination by microplate dilution, S. intermedius animal strain; type: cell-based, Staphylococcus intermedius; conditions: Staphylococcus intermedius, Gram-positive, Mueller-Hinton medium, 24 h, 37° C.
Experimental: as §1, §2, §3, §4, §5, §6, §7, §8, §9, §10, §11

[7] = test system: E. coli (1956); test: MIC determination by microplate dilution, E. coli animal strain; type: cell-based, Escherichia coli; conditions: Escherichia coli, Gram-negative, Mueller-Hinton medium, 24 h, 37° C.
Experimental: as §1, §2, §3, §4, §5, §6, §7, §8, §9, §10, §11

[8] = test system: P. aeruginosa ATCC27853; test: MIC determination by microplate dilution, P. aeruginosa human strain; type: cell-based, Pseudomonas aeruginosa; conditions: Pseudomonas aeruginosa, ATCC27853, Gram-negative, Mueller-Hinton medium, 24 h, 37° C.
Experimental: as §1, §2, §3, §4, §5, §6, §7, §8, §9, §10, §11

[9] = test system: P. aeruginosa (1051575); test: Potentiation of the doxycycline activity at 2 μg/mL; type: cell-based, Pseudomonas aeruginosa; conditions: in combination with doxycycline 2 μg/mL; 24 h, 37°
[10] = test system: E. faecalis ATCC29212; test: MIC determination by microplate dilution, E. faecalis human strain; type: cell-based, Enterococcus faecalis; conditions: Enterococcus faecalis, ATCC29212, Gram-positive, Mueller-Hinton medium, 24 h, 37° C.
Experimental: as §1, §2, §3, §4, §5, §6, §7, §8, §9, §10, §11

SMILES | MIC [1] | IC50 [2] | MIC [3] | MIC [4] | MIC [5] | MIC [6] | MIC [7] | MIC [8] | MIC - P. aeruginosa (1051575): content of compound of formula (I) to restore the doxycycline activity (at 2 μg/mL) [9] | MIC [10]
COC(=O)CC[C@@H](C)[C@H]1CCC2C3C(CC[C@@]21C)[C@@]1(C)CC[C@H](NCCCNCCCN)CC1C[C@@H]3O (stereo partly drawn) [(13), methyl 3β-norspermidinoursodeoxycholate] | 27 µg/mL (≈ 51.9 µM) | 70 µg/mL (≈ 135 µM) | 55 µg/mL (≈ 106 µM) | 14 µg/mL (≈ 26.9 µM) | 55 µg/mL (≈ 106 µM) | 7 µg/mL (≈ 13.5 µM) | 55 µg/mL (≈ 106 µM) | 28 µg/mL (≈ 53.9 µM) | 7 µg/mL | 28 µg/mL (≈ 53.9 µM)
COC(=O)CC[C@@H](C)[C@H]1CCC2C3C(CC[C@@]21C)[C@@]1(C)CC[C@H](NCCCN(C)CCCN)CC1C[C@H]3O (stereo partly drawn) [(37), methyl 3β-(bis(3-aminopropyl)methylamine)chenodeoxycholate] | 27 µg/mL (≈ 50.6 µM) | 115 µg/mL (≈ 215 µM) | 13 µg/mL (≈ 24.4 µM) | 27 µg/mL (≈ 50.6 µM) | 27 µg/mL (≈ 50.6 µM) | > 107 µg/mL | 13 µg/mL (≈ 24.4 µM) | 27 µg/mL (≈ 50.6 µM) | 3 µg/mL | 13 µg/mL (≈ 24.4 µM)
COC(=O)CC[C@@H](C)[C@H]1CCC2C3C(CC[C@@]21C)[C@@]1(C)CC[C@H](NCCNCCNCCNCCNCCN)CC1C[C@H]3O (stereo partly drawn) [(22), methyl 3β-(pentaethylenehexamine)chenodeoxycholate] | 16 µg/mL (≈ 25.8 µM) | 60 µg/mL (≈ 96.6 µM) | 31 µg/mL (≈ 49.9 µM) | 4 µg/mL (≈ 6.44 µM) | 31 µg/mL (≈ 49.9 µM) | 2 µg/mL (≈ 3.22 µM) | 8 µg/mL (≈ 12.9 µM) | 31 µg/mL (≈ 49.9 µM) | 4 µg/mL | 8 µg/mL (≈ 12.9 µM)
CC(C)OC(=O)CC[C@@H](C)[C@H]1CCC2C3C(C[C@H](O)[C@@]21C)[C@@]1(C)CC[C@H](NCCCNCCCNCCCN)CC1C[C@H]3O (stereo partly drawn) [Compound (6), isopropyl 3β-norsperminocholate] | 8 µg/mL (≈ 12.9 µM) | 90 µg/mL (≈ 145 µM) | 30 µg/mL (≈ 48.3 µM) | 8 µg/mL (≈ 12.9 µM) | 30 µg/mL (≈ 48.3 µM) | 16 µg/mL (≈ 25.8 µM) | 30 µg/mL (≈ 48.3 µM) | 30 µg/mL (≈ 48.3 µM) | 4 µg/mL | > 60 µg/mL
COC(=O)CC[C@@H](C)[C@H]1CCC2C3C(CC[C@@]21C)[C@@]1(C)CC[C@H](NCCCNCCCNCCCN)CC1C[C@@H]3O (stereo partly drawn) [Compound (12), methyl 3β-norsperminoursodeoxycholate] | 7 µg/mL (≈ 12.1 µM) | 20 µg/mL (≈ 34.7 µM) | 7 µg/mL (≈ 12.1 µM) | 4 µg/mL (≈ 6.93 µM) | 4 µg/mL (≈ 6.93 µM) | 1 µg/mL (≈ 1.73 µM) | 60 µg/mL (≈ 104 µM) | 30 µg/mL (≈ 52 µM) | 2 µg/mL | 30 µg/mL (≈ 52 µM)
COC(=O)CC[C@@H](C)[C@H]1CCC2C3C(CC[C@@]21C)[C@@]1(C)CC[C@H](NCCNCCNCCNCCNCCN)CC1C[C@@H]3O (stereo partly drawn) [(50), methyl 3β-(pentaethylenehexamine)ursodeoxycholate] | 30 µg/mL (≈ 48.3 µM) | 45 µg/mL (≈ 72.5 µM) | 60 µg/mL (≈ 96.6 µM) | 30 µg/mL (≈ 48.3 µM) | 60 µg/mL (≈ 96.6 µM) | 8 µg/mL (≈ 12.9 µM) | 60 µg/mL (≈ 96.6 µM) | 60 µg/mL (≈ 96.6 µM) | 16 µg/mL | 60 µg/mL (≈ 96.6 µM)
COC(=O)CC[C@@H](C)[C@H]1CCC2C3CCC4C[C@@H](NCCNCCNCCNCCNCCN)CC[C@]4(C)C3C[C@H](O)[C@@]21C (stereo partly drawn) [(20), methyl 3β-(pentaethylenehexamine)deoxycholate] | 4 µg/mL (≈ 6.44 µM) | 90 µg/mL (≈ 145 µM) | 8 µg/mL (≈ 12.9 µM) | 6 µg/mL (≈ 9.66 µM) | 8 µg/mL (≈ 12.9 µM) | 1 µg/mL (≈ 1.61 µM) | 14 µg/mL (≈ 22.5 µM) | 8 µg/mL (≈ 12.9 µM) | 4 µg/mL | 16 µg/mL (≈ 25.8 µM)
CC(C)OC(=O)CC[C@@H](C)[C@H]1CCC2C3C(CC[C@@]21C)[C@@]1(C)CC[C@H](NCCCN(C)CCCN)CC1C[C@H]3O (stereo partly drawn) [(41), isopropyl 3β-(bis(3-aminopropyl)methylamine)chenodeoxycholate] | 14 µg/mL (≈ 24.9 µM) | 4 µg/mL (≈ 7.12 µM) | 28 µg/mL (≈ 49.8 µM) | 14 µg/mL (≈ 24.9 µM) | 56 µg/mL (≈ 99.7 µM) | 7 µg/mL (≈ 12.5 µM) | 28 µg/mL (≈ 49.8 µM) | 28 µg/mL (≈ 49.8 µM) | 4 µg/mL | 28 µg/mL (≈ 49.8 µM)
